Test [1] relates to Rattus norvegicus. Kind of test: Dose (ip) giving half-maximal reversal of the gamma-butyrolactone-induced increase in DOPA formation of rat striatum. The class given is functional.
Test [2] deals with Mus musculus. Kind of test: Dose required for inhibition of locomotor activity in mice (sc).
Test [3] deals with Mus musculus. Kind of test: Dose required for reversal of reserpine-induced depression in mice (sc).
Test [4] is described as follows: Ratio of ED50 values for the inhibition of locomotor activity to reversal of reserpine-induced depression. The class given is functional.

On to `CN1CCc2cccc3c2[C@H]1Cc1ccc(O)c(O)c1-3` [APOMORPHINE], for which the ED50 (in general, the dose at which the effect has come halfway, by size or by number of responders) in test [1] was found to be 0.04 mg/kg; in test [2], 0.021 mg/kg; in test [3], 0.096 mg/kg.
Regarding `CCCN(CCC)C1COc2ccc(O)cc2C1` (stereo unspecified), the ED50 in test [1] was determined as 0.85 mg/kg; in test [2], 0.17 mg/kg; in test [3], 13.4 mg/kg. The Ratio in test [4] turned out to be 79.
For `CCCN(CCC)C1COc2c(O)cccc2C1` (stereo unspecified), the values for the ED50 in test [1], in test [2] and in test [3] were 0.05 mg/kg, 0.013 mg/kg and 3.95 mg/kg, respectively. For the same compound, the Ratio in test [4] was 304.

The values are drawn from ChEMBL document CHEMBL1124290, “6- and 8-hydroxy-3,4-dihydro-3-(dipropylamino)-2H-1-benzopyrans. Dopamine agonists with autoreceptor selectivity” (J Med Chem, 1988).
